# Experimental data published in patent US11912693B2, “Compounds for modulating S1P1 activity and methods of using the same” (TREVENA, INC., priority 2017, dated 2024).
# Key:
# [1] = molecular target: T1, human sphingosine-1-phosphate receptor 1 (S1P1) (Homo sapiens (Human), UniProt P21453); assay: Inhibition of cAMP production (HTRF cAMP HiRange), S1P1 CHO-K1 cells; assay type: cell-based; details: for Emax: CHO-K1, efficacy (SPAN) normalized to fingolimod, read-out: hS1P1 cAMP SPAN; for hS1P1 cAMP pEC50: inhibition of cAMP production, S1P1 CHO-K1 cells
# Procedure, shortened: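 CHO-K1 cells stably co-expressing human S1P1 (C-terminal Prolink tag) and EA-β-arrestin2 were grown in AssayComplete Media 6 at 37° C. and 5% CO2, plated, and incubated overnight. Agonist-driven inhibition of intracellular cAMP was read by TR-FRET with the HTRF cAMP HiRange kit on a PheraStar reader. Potency is pEC50, and efficacy (SPAN) is normalized to fingolimod.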
# Target sequence in this assay (P21453 whole entry, looked up): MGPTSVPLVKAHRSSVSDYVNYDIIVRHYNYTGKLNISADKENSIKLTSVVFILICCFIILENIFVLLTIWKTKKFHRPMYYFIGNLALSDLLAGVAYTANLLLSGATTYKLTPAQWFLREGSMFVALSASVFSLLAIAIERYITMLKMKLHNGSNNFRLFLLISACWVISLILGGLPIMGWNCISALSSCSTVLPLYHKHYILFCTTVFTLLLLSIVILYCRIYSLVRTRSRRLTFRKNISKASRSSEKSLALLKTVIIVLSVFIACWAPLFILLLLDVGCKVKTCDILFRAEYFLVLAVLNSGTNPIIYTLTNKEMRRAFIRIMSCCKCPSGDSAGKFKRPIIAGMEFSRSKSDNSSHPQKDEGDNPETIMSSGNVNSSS
# [2] = molecular target: T1, human sphingosine-1-phosphate receptor 1 (S1P1); assay: β-Arrestin2 recruitment assay (PathHunter), S1P1 CHO-K1 cells; assay type: cell-based; details: for Emax: CHO-K1, efficacy (SPAN) normalized to fingolimod, read-out: hS1P1 B-arrestin2 SPAN; for hS1P1 B-arrestin2 pEC50: β-arrestin2 recruitment, S1P1 CHO-K1 cells
# Procedure, shortened: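 Enzyme-fragment complementation read-out: agonist-driven β-arrestin2 binding to ProLink-tagged human S1P1 in stable CHO-K1 cells restores β-galactosidase, measured 1 h at room temperature after a 60 min 37° C. compound incubation. Potency as pEC50, efficacy relative to fingolimod (SPAN).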
# Target sequence in this assay (P21453 whole entry, looked up): as above
# Target sequence in this assay (P32121 whole entry partner, looked up): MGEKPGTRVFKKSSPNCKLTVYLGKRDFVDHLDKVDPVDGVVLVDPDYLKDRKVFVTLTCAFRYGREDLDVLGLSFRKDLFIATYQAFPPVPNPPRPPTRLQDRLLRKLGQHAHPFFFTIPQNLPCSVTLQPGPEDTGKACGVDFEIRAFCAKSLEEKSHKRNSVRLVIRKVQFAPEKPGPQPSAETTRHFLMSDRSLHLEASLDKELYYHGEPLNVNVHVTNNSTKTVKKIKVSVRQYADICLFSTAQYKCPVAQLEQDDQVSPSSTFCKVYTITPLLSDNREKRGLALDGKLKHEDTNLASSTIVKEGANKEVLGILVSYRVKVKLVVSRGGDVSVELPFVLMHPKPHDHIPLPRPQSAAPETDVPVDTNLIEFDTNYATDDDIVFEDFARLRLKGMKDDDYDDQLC
SMILES,Emax [1],hS1P1 cAMP pEC50 [1],Emax [2],hS1P1 B-arrestin2 pEC50 [2]
"O=C1CC2(CCOCC2)Oc2ccc(-c3nc(-c4cccnc4)no3)cc21 [Compound 214, 6-[3-(pyridin-3-yl)-1,2,4-oxadiazol-5-yl]-3,4-dihydrospiro[1-benzopyran-2,4′-oxane]-4-one]",< 75%,<6.5,< 75%,<5
"CC(C)n1nnc2cc(-c3ncc(-c4ccccc4C(F)(F)F)s3)ccc21 [Compound 215, 2-(1-isopropyl-1H-benzo[d][1,2,3]triazol-5-yl)-5-(2-(trifluoromethyl)phenyl)thiazole]",< 75%,<6.5,< 75%,<5
"Cc1ccccc1-c1cnc(-c2ccc3c(c2)nnn3C(C)C)s1 [Compound 216, 2-(1-isopropylbenzotriazol-5-yl)-5-(o-tolyl)thiazole]",< 75%,<6.5,< 75%,<5
"O=C1CC2(CCC(F)(F)CC2)Oc2ccc(-c3nc(-c4ccncc4)no3)cc21 [Compound 217, 4′,4′-difluoro-6-[3-(pyridin-4-yl)-1,2,4-oxadiazol-5-yl]-3,4-dihydrospiro[1-benzopyran-2,1′-cyclohexane]-4-one]",–,<6.5,–,<5
"CCCC1(CCC)CC(=O)c2cc(-c3nc(-c4cccnc4)no3)ccc2O1 [Compound 218, 2,2-dipropyl-6-[3-(pyridin-3-yl)-1,2,4-oxadiazol-5-yl]-3,4-dihydro-2H-1-benzopyran-4-one]",–,<6.5,–,<5
"CC(C)n1nnc2cc(-c3ncc(-c4ccccc4Br)s3)ccc21 [Compound 220, 5-(2-bromophenyl)-2-(1-isopropylbenzotriazol-5-yl)thiazole]",–,<6.5,–,<5
"CCC1(CC)CC(=O)c2cc(-c3nsc(-c4ccccc4OC)n3)ccc2O1 [Compound 222, 2,2-diethyl-6-(5-(2-methoxyphenyl)-1,2,4-thiadiazol-3-yl)chroman-4-one]",–,<6.5,–,>5
"CCC1(CC)CC(=O)c2cc(-c3nnc(-c4ccc5c(c4)nnn5C(C)C)o3)ccc2O1 [Compound 223, 2,2-diethyl-6-(5-(1-isopropyl-1H-benzo[d][1,2,3]triazol-5-yl)-1,3,4-oxadiazol-2-yl)chroman-4-one]",< 75%,<6.5,< 75%,<5
"CCC1(CC)CC(=O)c2cc(-c3nc(-c4cccc(C)c4)no3)ccc2O1 [Compound 225, 2,2-diethyl-6-(3-(m-tolyl)-1,2,4-oxadiazol-5-yl)chroman-4-one]",–,<6.5,–,>5
"CCC1(CC)CC(=O)c2cc(-c3nc(-c4ccncc4F)no3)ccc2O1 [Compound 226, 2,2-diethyl-6-(3-(3-fluoropyridin-4-yl)-1,2,4-oxadiazol-5-yl)chroman-4-one]",–,<6.5,–,<5
"CCC1(CC)CC(=O)c2cc(-c3nc(-c4cccc(O)c4)no3)ccc2O1 [Compound 227, 2,2-diethyl-6-[3-(3-hydroxyphenyl)-1,2,4-oxadiazol-5-yl]chroman-4-one]",–,>6.5,–,<5
"COc1cccc(-c2noc(-c3ccc4c(c3)nnn4C(C)C)n2)c1 [Compound 228, 5-(1-isopropyl-1H-benzo[d][1,2,3]triazol-5-yl)-3-(3-methoxyphenyl)-1,2,4-oxadiazole]",–,<6.5,–,<5
"Cc1cncc(-c2nc(-c3ccc4c(c3)nnn4C(C)C)no2)n1 [Compound 229, 3-(1-isopropyl-1H-benzo[d][1,2,3]triazol-5-yl)-5-(6-methylpyrazin-2-yl)-1,2,4-oxadiazole]",–,<6.5,–,>5
"COc1ccc(-c2noc(-c3ccc4c(c3)nnn4C(C)C)n2)cc1OC [Compound 230, 3-(3,4-dimethoxyphenyl)-5-(1-isopropyl-1H-benzo[d][1,2,3]triazol-5-yl)-1,2,4-oxadiazole]",< 75%,<6.5,< 75%,<5
"COc1ccccc1-c1noc(-c2ccc3c(c2)nnn3C2CCOCC2)n1 [Compound 231, 5-[3-(2-methoxyphenyl)-1,2,4-oxadiazol-5-yl]-1-(oxan-4-yl)-1H-1,2,3-benzotriazole]",< 75%,<6.5,< 75%,<5
"Fc1ccc(-c2noc(-c3ccc4c(c3)nnn4C3CCCC3)n2)cc1 [Compound 232, 1-cyclopentyl-5-[3-(4-fluorophenyl)-1,2,4-oxadiazol-5-yl]-1H-1,2,3-benzotriazole]",< 75%,<6.5,< 75%,<5
"Brc1ccccc1-c1noc(-c2ccc3c(c2)nnn3C2CCOCC2)n1 [Compound 233, 5-[3-(2-bromophenyl)-1,2,4-oxadiazol-5-yl]-1-(oxan-4-yl)-1H-1,2,3-benzotriazole]",< 75%,<6.5,< 75%,<5
"Cc1ccc(-c2nc(-c3ccc4c(c3)nnn4C3CCCC3)no2)cc1 [Compound 235, 3-(1-cyclopentyl-1H-benzo[d][1,2,3]triazol-5-yl)-5-(p-tolyl)-1,2,4-oxadiazole]",–,<6.5,–,<5
"Cc1ccc(-c2noc(-c3ccc4c(c3)nnn4C(C)C)n2)cn1 [Compound 236, 5-[3-(6-methylpyridin-3-yl)-1,2,4-oxadiazol-5-yl]-1-(propan-2-yl)-1H-1,2,3-benzotriazole]",< 75%,<6.5,> 75%,<5
"CSc1ccc(-c2nc(-c3ccc4c(c3)nnn4C3CCCC3)no2)cc1 [Compound 237, 3-(1-cyclopentyl-1H-benzo[d][1,2,3]triazol-5-yl)-5-(4-(methylthio)phenyl)-1,2,4-oxadiazole]",< 75%,<6.5,< 75%,<5
"OCCn1nnc2cc(-c3noc(-c4ccccc4Br)n3)ccc21 [Compound 238, 2-(5-(5-(2-bromophenyl)-1,2,4-oxadiazol-3-yl)-1H-benzo[d][1,2,3]triazol-1-yl)ethanol]",< 75%,<6.5,< 75%,<5
"Cc1ccsc1-c1noc(-c2ccc3c(c2)nnn3CC2CC2)n1 [Compound 239, 1-(cyclopropylmethyl)-5-[3-(3-methylthiophen-2-yl)-1,2,4-oxadiazol-5-yl]-1H-1,2,3-benzotriazole]",< 75%,<6.5,< 75%,<5
"CC(C)n1nnc2cc(-c3noc(-c4ccccc4OC(F)(F)F)n3)ccc21 [Compound 240, 3-(1-isopropyl-1H-benzo[d][1,2,3]triazol-5-yl)-5-(2-(trifluoromethoxy)phenyl)-1,2,4-oxadiazole]",> 75%,<6.5,> 75%,<5
"CC(C)n1nnc2cc(-c3nc(-c4ccccn4)no3)ccc21 [Compound 241, 1-(propan-2-yl)-5-[3-(pyridin-2-yl)-1,2,4-oxadiazol-5-yl]-1H-1,2,3-benzotriazole]",> 75%,<6.5,> 75%,<5
"CCCn1nnc2cc(-c3nc(-c4cccc(C(F)(F)F)c4)no3)ccc21 [Compound 242, 1-propyl-5-{3-[3-(trifluoromethyl)phenyl]-1,2,4-oxadiazol-5-yl}-1H-1,2,3-benzotriazole]",< 75%,<6.5,< 75%,<5
"Cc1cccc(C)c1-c1noc(-c2ccc3c(c2)nnn3C(C)C)n1 [Compound 243, 3-(2,6-dimethylphenyl)-5-(1-isopropyl-1H-benzo[d][1,2,3]triazol-5-yl)-1,2,4-oxadiazole]",> 75%,<6.5,> 75%,<5
"CC(C)n1nnc2cc(-c3nc(-c4ccncc4)no3)ccc21 [Compound 244, 1-(propan-2-yl)-5-[3-(pyridin-4-yl)-1,2,4-oxadiazol-5-yl]-1H-1,2,3-benzotriazole]",> 75%,>6.5,> 75%,>5
"Cc1ccccc1-c1noc(-c2ccc3c(c2)nnn3C2CCCCC2)n1 [Compound 245, 1-cyclohexyl-5-[3-(2-methylphenyl)-1,2,4-oxadiazol-5-yl]-1H-1,2,3-benzotriazole]",> 75%,<6.5,> 75%,>5
"CC(C)Oc1ccc(-c2nc(-c3ccc4c(c3)nnn4C(C)C)no2)cc1C(F)(F)F [Compound 246, 5-(4-isopropoxy-3-(trifluoromethyl)phenyl)-3-(1-isopropyl-1H-benzo[d][1,2,3]triazol-5-yl)-1,2,4-oxadiazole]",–,>6.5,–,>5
"Cc1oc(-c2ccc3c(c2)nnn3C(C)C)nc1-c1ccccc1 [Compound 247, 5-(5-methyl-4-phenyl-1,3-oxazol-2-yl)-1-(propan-2-yl)-1H-1,2,3-benzotriazole]",< 75%,<6.5,< 75%,<5
